Data from ChEMBL document CHEMBL5576067, “Synthesis and biological evaluation of novel 1,2,3,4-tetrahydro-β-carboline derivatives as potential antibacterial agents” (Bioorg Med Chem Lett, 2024).
In brackets after ≈: the same amount, converted by molar mass.

How the values were obtained:
Type in all cases: functional
Staphylococcus aureus [1] = assay: Antibacterial activity against methicillin resistant Staphylococcus aureus ATCC33591 assessed as inhibition of bacterial growth incubated for 24 hrs by broth microdilution method
Ralstonia solanacearum = assay: Antibacterial activity against Ralstonia solanacearum assessed as inhibition of bacterial growth incubated for 24 hrs by broth microdilution method
Enterococcus faecium = assay: Antibacterial activity against vancomycin-resistant Enterococcus faecium ATCC 700221 assessed as inhibition of bacterial growth incubated for 24 hrs by broth microdilution method
Escherichia coli = assay: Antibacterial activity against Escherichia coli ATCC25922 assessed as inhibition of bacterial growth incubated for 24 hrs by broth microdilution method
[2] = (§1) Antibacterial activity against Pseudomonas syringae pv. actinidiae assessed as inhibition of bacterial growth incubated for 24 hrs by broth microdilution method
Staphylococcus aureus [3] = assay: Antibacterial activity against Staphylococcus aureus ATCC25923 assessed as inhibition of bacterial growth incubated for 24 hrs by broth microdilution method
Staphylococcus aureus [4] = assay: Bactericidal activity against Staphylococcus aureus ATCC25923 assessed as inhibition of bacterial growth incubated for 24 hrs by resazurin dye based analysis
Staphylococcus aureus [5] = assay: Bactericidal activity against methicillin resistant Staphylococcus aureus ATCC33591 assessed as inhibition of bacterial growth incubated for 24 hrs by resazurin dye based analysis
[6] = test system: Pseudomonas syringae pv. actinidiae; assay: as §1

Row | Molecule | MIC (Staphylococcus aureus [1]) [µg/mL] | MIC (Ralstonia solanacearum) [µg/mL] | MIC (Enterococcus faecium) [µg/mL] | MIC (Escherichia coli) [µg/mL] | MIC [2] [µg/mL] | MIC (Staphylococcus aureus [3]) [µg/mL] | MBC (Staphylococcus aureus [4]) [µg/mL] | MBC (Staphylococcus aureus [5]) [µg/mL] | MIC [6] [µg/mL]
1 | CN1CCc2c([nH]c3ccccc23)C1c1ccc(NC(=O)c2ccc([N+](=O)[O-])cc2)cc1 (stereo not drawn) | 16 (≈ 37.5 µM) | 32 (≈ 75 µM) | > 128 | 32 (≈ 75 µM) | 32 (≈ 75 µM) | 32 (≈ 75 µM) |  |  | 
2 | O=C(Nc1ccc(C2NCCc3c2[nH]c2ccccc32)cc1)c1ccccc1 (stereo not drawn) | 128 (≈ 348 µM) | 32 (≈ 87.1 µM) | > 128 | 64 (≈ 174 µM) | 32 (≈ 87.1 µM) | 128 (≈ 348 µM) |  |  | 
3 | CN1CCc2c([nH]c3ccccc23)C1c1ccc(NC(=O)c2cccc([N+](=O)[O-])c2)cc1 (stereo not drawn) | 64 (≈ 150 µM) | 64 (≈ 150 µM) | > 128 | 64 (≈ 150 µM) | > 128 | 64 (≈ 150 µM) |  |  | 
4 | CN1CCc2c([nH]c3ccccc23)C1c1ccc(NC(=O)c2ccc(F)cc2)cc1 (stereo not drawn) | 8 (≈ 20 µM) | 16 (≈ 40.1 µM) | > 128 | 16 (≈ 40.1 µM) | 128 (≈ 320 µM) | 4 (≈ 10 µM) |  |  | 
5 | Cc1cccc(C(=O)Nc2ccc(C3c4[nH]c5ccccc5c4CCN3C)cc2)c1 (stereo not drawn) | 64 (≈ 162 µM) | 32 (≈ 80.9 µM) | > 128 | 64 (≈ 162 µM) | 32 (≈ 80.9 µM) | 32 (≈ 80.9 µM) |  |  | 
6 | Cc1ccccc1C(=O)Nc1ccc(C2c3[nH]c4ccccc4c3CCN2C)cc1 (stereo not drawn) | 32 (≈ 80.9 µM) | 128 (≈ 324 µM) | > 128 | 64 (≈ 162 µM) | 64 (≈ 162 µM) | 64 (≈ 162 µM) |  |  | 
7 | O=C(Nc1ccc(C2NCCc3c2[nH]c2ccccc32)cc1)c1ccc(F)c(C(F)(F)F)c1 (stereo not drawn) | 8 (≈ 17.6 µM) | 16 (≈ 35.3 µM) | > 128 | 8 (≈ 17.6 µM) | 32 (≈ 70.6 µM) | 4 (≈ 8.82 µM) |  |  | 
8 | O=C(Nc1ccc(C2NCCc3c2[nH]c2ccccc32)cc1)c1ccccc1F (stereo not drawn) | 32 (≈ 83 µM) | 128 (≈ 332 µM) | > 128 | 64 (≈ 166 µM) | 64 (≈ 166 µM) | 32 (≈ 83 µM) |  |  | 
9 | CN1CCc2c([nH]c3ccccc23)C1c1ccc(NC(=O)c2cc(C(F)(F)F)cc(C(F)(F)F)c2)cc1 (stereo not drawn) | 32 (≈ 61.8 µM) | 128 (≈ 247 µM) | > 128 | 128 (≈ 247 µM) | > 128 | 16 (≈ 30.9 µM) |  |  | 
10 | CN1CCc2c([nH]c3ccccc23)C1c1ccc(NC(=O)c2ccc(F)c(C(F)(F)F)c2)cc1 (stereo not drawn) | 8 (≈ 17.1 µM) | 16 (≈ 34.2 µM) | > 128 | 16 (≈ 34.2 µM) | 64 (≈ 137 µM) | 16 (≈ 34.2 µM) |  |  | 
11 | COC(=O)c1ccc(C(=O)Nc2ccc(C3NCCc4c3[nH]c3ccccc43)cc2)cc1 (stereo not drawn) | 32 (≈ 75.2 µM) | 16 (≈ 37.6 µM) | > 128 | 16 (≈ 37.6 µM) | 16 (≈ 37.6 µM) | 16 (≈ 37.6 µM) |  |  | 
12 | CN1CCc2c([nH]c3ccccc23)C1c1ccc(NC(=O)c2ccccc2F)cc1 (stereo not drawn) | 32 (≈ 80.1 µM) | 128 (≈ 320 µM) | > 128 | 64 (≈ 160 µM) | 32 (≈ 80.1 µM) | 64 (≈ 160 µM) |  |  | 
13 | GENTAMICIN | > 128 | 16 | > 128 | 4 |  | 4 | 8 | > 128 | 8
14 | O=C(Nc1ccc(C2NCCc3c2[nH]c2ccccc32)cc1)c1cc(C(F)(F)F)cc(C(F)(F)F)c1 (stereo not drawn) | 16 (≈ 31.8 µM) | 128 (≈ 254 µM) | > 128 | 128 (≈ 254 µM) | 64 (≈ 127 µM) | 16 (≈ 31.8 µM) |  |  | 
15 | CN1CCc2c([nH]c3ccccc23)C1c1ccc(NC(=O)c2ccccc2)cc1 (stereo not drawn) | 128 (≈ 336 µM) | 128 (≈ 336 µM) | > 128 | 128 (≈ 336 µM) | 64 (≈ 168 µM) | 128 (≈ 336 µM) |  |  | 
16 | CN1CCc2c([nH]c3ccccc23)C1c1ccc(NC(=O)c2cccc(F)c2)cc1 (stereo not drawn) | 4 (≈ 10 µM) | 16 (≈ 40.1 µM) | > 128 | 16 (≈ 40.1 µM) | 16 (≈ 40.1 µM) | 32 (≈ 80.1 µM) |  |  | 
